According to US9718790B2, “Triazine derivative and pharmaceutical composition having an analgesic activity comprising the same” (SHIONOGI & CO., LTD., priority 2010, dated 2017):
pIC50: −log10 of the molar value.

Biological target: human P2X3 receptor (Homo sapiens (Human), UniProt P56373)
Assay: Evaluation of human P2X3 receptor inhibitory activity (Fluo-3 calcium fluorescence, FDSS 3000, ATP stimulation);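 note: stimulus was 50 nM ATP with fluorescence followed for 3 min, and the response per well was peak post-ATP fluorescence divided by the reading at measurement start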
Format: cell-based
Details: C6BU-1 cells stably expressing human P2X3 receptor, Fluo-3 fluorescence, FDSS 3000

human P2X3 receptor, sequence (P56373 whole entry): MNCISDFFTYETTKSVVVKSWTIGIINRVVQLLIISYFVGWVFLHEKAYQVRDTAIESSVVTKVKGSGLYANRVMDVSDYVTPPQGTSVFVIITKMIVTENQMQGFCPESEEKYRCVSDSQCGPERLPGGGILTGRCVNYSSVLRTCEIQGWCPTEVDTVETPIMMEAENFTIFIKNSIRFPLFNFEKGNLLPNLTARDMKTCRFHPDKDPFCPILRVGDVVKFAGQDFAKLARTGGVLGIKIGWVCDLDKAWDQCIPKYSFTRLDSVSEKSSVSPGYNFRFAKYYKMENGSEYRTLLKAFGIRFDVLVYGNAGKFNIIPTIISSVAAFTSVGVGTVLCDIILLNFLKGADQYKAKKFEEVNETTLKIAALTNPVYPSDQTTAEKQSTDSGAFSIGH

Row | Compound | pIC50
1 | CCOC(=O)CCn1c(=O)[nH]/c(=N\c2ccc(OCC3CC3)c(Cl)c2)n(Cc2ccc(C)cc2)c1=O [Compound I-0957] | 7.60
2 | COC(=O)[C@@H](C)Cn1c(=O)[nH]/c(=N\c2ccc(OCC3CC3)c(Cl)c2)n(Cc2ccc(C)cc2)c1=O [Compound I-0958] | 7.52
3 | CC(C)=Cc1ccc(/N=c2\[nH]c(=O)n(C[C@H](C)C(=O)O)c(=O)n2Cc2ccc(Cl)cc2)cc1Cl [Compound I-0959] | 8.15
4 | CC(C)Oc1ccc(/N=c2\[nH]c(=O)n(C[C@H](C)C(=O)O)c(=O)n2Cc2ccc(Cl)cc2)cc1C#N [Compound I-0960] | 7.15
5 | Cc1ccc(Cn2c(=O)n(C[C@H](C)C(=O)O)c(=O)[nH]/c2=N\c2ccc(OC(C)C)c(C#N)c2)cc1 [Compound I-0961] | 7.13
6 | C[C@@H](Cn1c(=O)[nH]/c(=N\c2ccc(N3CCCCC3)cc2)n(Cc2ccc(Cl)cc2)c1=O)C(=O)O [Compound I-0962] | 7.51
7 | CCN(c1ccc(/N=c2\[nH]c(=O)n(C[C@H](C)C(=O)O)c(=O)n2Cc2ccc(Cl)cc2)cc1)C(C)C [Compound I-0963] | 6.18
8 | COC(=O)[C@H](C)[C@H](C)n1c(=O)[nH]/c(=N\c2ccc(OCC3CC3)cc2)n(Cc2ccc(C)cc2)c1=O [Compound I-0965] | 7.68
9 | CCOc1ccc(/N=c2\[nH]c(=O)n([C@@H](C)[C@@H](C)C(=O)OC)c(=O)n2Cc2ccc(C)cc2)cc1Cl [Compound I-0966] | 7.77
10 | COC(=O)[C@H](C)[C@H](C)n1c(=O)[nH]/c(=N\c2ccc(OC(C)C)c(F)c2)n(Cc2ccc(C)cc2)c1=O [Compound I-0967] | 7.72
11 | Cc1ccc(Cn2c(=O)n(CCC(=O)O)c(=O)[nH]/c2=N\c2ccc(OCC3CC3)c(Cl)c2)cc1 [Compound I-0968] | 6.97
12 | COC(=O)[C@H](C)[C@H](C)n1c(=O)[nH]/c(=N\c2ccc(OCC3CC3)c(Cl)c2)n(Cc2ccc(C)cc2)c1=O [Compound I-0969] | 7.33
13 | CCOC(=O)C1(Cn2c(=O)[nH]/c(=N\c3ccc(OCC4CC4)c(Cl)c3)n(Cc3ccc(C)cc3)c2=O)CC1 [Compound I-0970] | 7.70
14 | Cc1ccc(Cn2c(=O)n(C[C@H](C)C(=O)O)c(=O)[nH]/c2=N\c2ccc(OCC3CC3)c(Cl)c2)cc1 [Compound I-0971] | 7.52
15 | Cc1ccc(Cn2c(=O)n([C@@H](C)[C@@H](C)C(=O)O)c(=O)[nH]/c2=N\c2ccc(OCC3CC3)cc2)cc1 [Compound I-0972] | 7.42
16 | CCOc1ccc(/N=c2\[nH]c(=O)n([C@@H](C)[C@@H](C)C(=O)O)c(=O)n2Cc2ccc(C)cc2)cc1Cl [Compound I-0973] | 7.72
17 | Cc1ccc(Cn2c(=O)n([C@@H](C)[C@@H](C)C(=O)O)c(=O)[nH]/c2=N\c2ccc(OC(C)C)c(F)c2)cc1 [Compound I-0974] | 7.54
18 | Cc1ccc(Cn2c(=O)n([C@@H](C)[C@@H](C)C(=O)O)c(=O)[nH]/c2=N\c2ccc(OCC3CC3)c(Cl)c2)cc1 [Compound I-0975] | 7.37
19 | Cc1ccc(Cn2c(=O)n(CC3(C(=O)O)CC3)c(=O)[nH]/c2=N\c2ccc(OCC3CC3)c(Cl)c2)cc1 [Compound I-0976] | 7.16
20 | COC(=O)CC1(Cn2c(=O)[nH]/c(=N\c3ccc(OC(C)C)c(Cl)c3)n(Cc3ccc(Cl)cc3)c2=O)CC1 [Compound I-0977] | 7.82

Row | Compound | pIC50
21 | COC(=O)CC1(Cn2c(=O)[nH]/c(=N\c3ccc(OC(C)C)c(C)c3)n(Cc3ccc(Cl)cc3)c2=O)CC1 [Compound I-0978] | 7.89
22 | COC(=O)CC1(Cn2c(=O)[nH]/c(=N\c3ccc(OC(C)C)c(Cl)c3)n(Cc3ccc(C)cc3)c2=O)CC1 [Compound I-0979] | 8.22
23 | COC(=O)CC1(Cn2c(=O)[nH]/c(=N\c3ccc(OC(C)C)c(C)c3)n(Cc3ccc(C)cc3)c2=O)CC1 [Compound I-0980] | 7.96
24 | CC(C)Oc1ccc(/N=c2\[nH]c(=O)n(CC3(CC(=O)O)CC3)c(=O)n2Cc2ccc(Cl)cc2)cc1Cl [Compound I-0981] | 8.00
25 | Cc1cc(/N=c2\[nH]c(=O)n(CC3(CC(=O)O)CC3)c(=O)n2Cc2ccc(Cl)cc2)ccc1OC(C)C [Compound I-0982] | 7.77
26 | Cc1ccc(Cn2c(=O)n(CC3(CC(=O)O)CC3)c(=O)[nH]/c2=N\c2ccc(OC(C)C)c(Cl)c2)cc1 [Compound I-0983] | 8.15
27 | Cc1ccc(Cn2c(=O)n(CC3(CC(=O)O)CC3)c(=O)[nH]/c2=N\c2ccc(OC(C)C)c(C)c2)cc1 [Compound I-0984] | 7.68
28 | CCCOc1ccc(/N=c2\[nH]c(=O)n(CC3(C(=O)O)CC3)c(=O)n2Cc2ccc(Cl)cc2)cc1Cl [Compound I-0986] | 7.51
29 | CCOC(=O)C1(Cn2c(=O)[nH]/c(=N\c3ccc(OC(C)C)cc3)n(Cc3ccc(Cl)cc3)c2=O)CC1 [Compound I-0987] | 7.82
30 | CC(C)Oc1ccc(/N=c2\[nH]c(=O)n(CC3(C(=O)O)CC3)c(=O)n2Cc2ccc(Cl)cc2)cc1 [Compound I-0988] | 7.03
31 | COC(=O)[C@@H](C)Cn1c(=O)[nH]/c(=N\c2ccc(Oc3ccccc3)cc2)n(Cc2ccc(Cl)cc2)c1=O [Compound I-0989, (S)-1-(4-chlorobenzyl)-3-(2-methoxycarbonylpropyl)-6-(4-phenoxy-phenylimino)-1,3,5-triazinane-2,4-dion] | 7.17
32 | COC(=O)[C@@H](C)Cn1c(=O)[nH]/c(=N\c2ccc(Oc3ccccc3)cc2)n(Cc2ccc(C)cc2)c1=O [Compound I-0990] | 7.29
33 | C[C@@H](Cn1c(=O)[nH]/c(=N\c2ccc(Oc3ccccc3)cc2)n(Cc2ccc(Cl)cc2)c1=O)C(=O)O [Compound I-0991, (S)-1-(4-chlorobenzyl)-3-(2-hydroxycarbonylpropyl)-6-(4-phenoxyphenylimino)-1,3,5-triazinane-2,4-dion] | 7.66
34 | Cc1ccc(Cn2c(=O)n(C[C@H](C)C(=O)O)c(=O)[nH]/c2=N\c2ccc(Oc3ccccc3)cc2)cc1 [Compound I-0992] | 7.62
35 | COCO[C@@H](Cn1c(=O)[nH]/c(=N\c2ccc(OC(C)C)c(C)c2)n(Cc2ccc(Cl)cc2)c1=O)C(=O)OC [Compound I-0993, (S)-1-(4-chlorobenzyl)-6-(3-mehyl-4-isopropoxyphenylimino)-3-[2-methoxycarbonyl-2-(methoxymethyloxy)ethyl]-1,3,5-triazinane-2,4-dion] | 7.70
36 | COC(=O)[C@@H](O)Cn1c(=O)[nH]/c(=N\c2ccc(OC(C)C)c(C)c2)n(Cc2ccc(Cl)cc2)c1=O [Compound I-0994, (S)-1-(4-chlorobenzyl)-6-(3-mehyl-4-isopropoxyphenylimino)-3-(2-methoxycarbonyl-2-hydroxyethyl)-1,3,5-triazinane-2,4-dion] | 7.70
37 | C=C(C)c1ccc(Cn2c(=O)n(C[C@H](C)C(=O)OC)c(=O)[nH]/c2=N\c2ccc(OC(C)C)c(C)c2)cc1 [Compound I-0995] | 6.56
38 | COC(=O)C(=O)Cn1c(=O)[nH]/c(=N\c2ccc(OC(C)C)c(C)c2)n(Cc2ccc(Cl)cc2)c1=O [Compound I-0996, 1-(4-chlorobenzyl)-6-(3-mehyl-4-isopropoxyphenylimino)-3-(2-methoxycarbonyl-2-oxoethyl)-1,3,5-triazinane-2,4-dion] | 7.49
39 | COC(=O)[C@@H](C)Cn1c(=O)[nH]/c(=N\c2ccc(OC(C)C)c(C)c2)n(Cc2ccc(C(C)C)cc2)c1=O [Compound I-0997] | 6.17
40 | COC(=O)[C@@H](C)Cn1c(=O)[nH]/c(=N\c2ccc(Cl)c(Cl)c2)n(Cc2ccc(C)cc2)c1=O [Compound I-0998] | 7.62

Row | Compound | pIC50
41 | COC(=O)[C@@H](C)Cn1c(=O)[nH]/c(=N\c2ccc(OC(F)(F)F)cc2)n(Cc2ccc(C)cc2)c1=O [Compound I-0999] | 6.76
42 | COC(=O)[C@@H](C)Cn1c(=O)[nH]/c(=N\c2ccc(Cl)c(C(F)(F)F)c2)n(Cc2ccc(C)cc2)c1=O [Compound I-1000] | 6.94
43 | C=C(C)c1ccc(Cn2c(=O)n(C[C@H](C)C(=O)O)c(=O)[nH]/c2=N\c2ccc(OC(C)C)c(C)c2)cc1 [Compound I-1001] | 6.53
44 | Cc1ccc(Cn2c(=O)n(C[C@H](C)C(=O)O)c(=O)[nH]/c2=N\c2ccc(OC(F)(F)F)cc2)cc1 [Compound I-1002] | 6.53
45 | Cc1ccc(Cn2c(=O)n(C[C@H](C)C(=O)O)c(=O)[nH]/c2=N\c2ccc(Cl)c(C(F)(F)F)c2)cc1 [Compound I-1003] | 6.64
46 | Cc1ccc(Cn2c(=O)n(C[C@H](C)C(=O)O)c(=O)[nH]/c2=N\c2ccc(Cl)c(Cl)c2)cc1 [Compound I-1004] | 7.07
47 | CCCCOc1ccc(/N=c2\[nH]c(=O)n(CC3(C(=O)OCC)CC3)c(=O)n2Cc2ccc(Cl)cc2)cc1 [Compound I-1005] | 7.51
48 | CCOC(=O)C1(Cn2c(=O)[nH]/c(=N\c3ccc(OCC(C)C)cc3)n(Cc3ccc(Cl)cc3)c2=O)CC1 [Compound I-1007] | 7.82
49 | Cc1cc(/N=c2\[nH]c(=O)n(CC(=O)C(=O)O)c(=O)n2Cc2ccc(Cl)cc2)ccc1OC(C)C [Compound I-1009] | 7.16
50 | CC(C)Oc1ccc(/N=c2\[nH]c(=O)n(CC3(CO)COC3)c(=O)n2Cc2ccc(Cl)cc2)cc1Cl [Compound I-1010] | 8.40
51 | CC(C)Oc1ccc(/N=c2\[nH]c(=O)n(CC3(C(=O)O)COC3)c(=O)n2Cc2ccc(Cl)cc2)cc1Cl [Compound I-1011] | 7.68
52 | CC(C)Oc1ccc(/N=c2\[nH]c(=O)n(CC(CO)(CO)C(=O)O)c(=O)n2Cc2ccc(Cl)cc2)cc1Cl [Compound I-1012] | 7.29
53 | CC[C@@H](C)Oc1ccc(/N=c2\[nH]c(=O)n(C[C@H](C)C(=O)O)c(=O)n2Cc2ccc(C)cc2)cc1Cl [Compound I-1013] | 8.30
54 | CC[C@H](C)Oc1ccc(/N=c2\[nH]c(=O)n(C[C@H](C)C(=O)O)c(=O)n2Cc2ccc(C)cc2)cc1Cl [Compound I-1014] | 7.77
55 | CC[C@@H](C)Oc1ccc(/N=c2\[nH]c(=O)n(C[C@H](C)C(=O)OC)c(=O)n2Cc2ccc(C)cc2)cc1Cl [Compound I-1015] | 8.15
56 | CC[C@H](C)Oc1ccc(/N=c2\[nH]c(=O)n(C[C@H](C)C(=O)OC)c(=O)n2Cc2ccc(C)cc2)cc1Cl [Compound I-1016] | 7.77
57 | Cc1cc(/N=c2\[nH]c(=O)n(C[C@H](C)C(=O)O)c(=O)n2Cc2ccc(C(C)C)cc2)ccc1OC(C)C [Compound I-1017] | 6.26
58 | CCOC(=O)CCn1c(=O)[nH]/c(=N\c2ccc(O[C@H](C)CC)cc2)n(Cc2ccc(C)cc2)c1=O [Compound I-1018] | 8.10
